# Test results taken from patent US20240238242A1, “EGCG buccal tablet and use thereof” (priority 2023, published 2024).
# Where two headings read alike, the source gives them in different places.
# Test system: Influenza A H1N1 virus (H1N1-PR8)
# Assay type: cell-based
# Settings: for average inactivation efficiency against virus: three experiments
smiles,measurement,setting,value
"O=C(O[C@@H]1Cc2c(O)cc(O)cc2O[C@@H]1c1cc(O)c(O)c(O)c1)c1cc(O)c(O)c(O)c1 [EGCG, Epigallocatechin gallate]","CPE test, virus replication in cell wells (wells 1-10)","0.2 mM EGCG + PR8 virus, 5 minutes, third experiment, dilution factor 10^1",+
same,"CPE test, virus replication in cell wells (wells 1-10)","0.2 mM EGCG + PR8 virus, 5 minutes, third experiment, dilution factor 10^2",+
same,"CPE test, virus replication in cell wells (wells 1-10)","0.2 mM EGCG + PR8 virus, 5 minutes, third experiment, dilution factor 10^3",+
same,"CPE test, virus replication in cell wells (wells 1-10)","0.2 mM EGCG + PR8 virus, 5 minutes, third experiment, dilution factor 10^4",+
same,"CPE test, virus replication in cell wells (wells 1-10)","0.2 mM EGCG + PR8 virus, 5 minutes, third experiment, dilution factor 10^5",+
same,"CPE test, virus replication in cell wells (wells 1-10)","0.2 mM EGCG + PR8 virus, 5 minutes, third experiment, dilution factor 10^6",− and +
same,"CPE test, virus replication in cell wells (wells 1-10)","0.2 mM EGCG + PR8 virus, 5 minutes, third experiment, dilution factor 10^7",−
same,"CPE test, virus replication in cell wells (wells 1-10)","0.2 mM EGCG + PR8 virus, 5 minutes, third experiment, dilution factor 10^8",−
same,CPE test (virus replication in the cell wells),"0.2 mM EGCG + PR8 virus, co-incubated 1 minute, third experiment, dilution factor 10^1, wells 1-10",+
same,CPE test (virus replication in the cell wells),"0.2 mM EGCG + PR8 virus, co-incubated 1 minute, third experiment, dilution factor 10^2, wells 1-10",+
same,CPE test (virus replication in the cell wells),"0.2 mM EGCG + PR8 virus, co-incubated 1 minute, third experiment, dilution factor 10^3, wells 1-10",+
same,CPE test (virus replication in the cell wells),"0.2 mM EGCG + PR8 virus, co-incubated 1 minute, third experiment, dilution factor 10^4, wells 1-10",+
same,CPE test (virus replication in the cell wells),"0.2 mM EGCG + PR8 virus, co-incubated 1 minute, third experiment, dilution factor 10^5, wells 1-10",+
same,CPE test (virus replication in the cell wells),"0.2 mM EGCG + PR8 virus, co-incubated 1 minute, third experiment, dilution factor 10^6, wells 1-10",+ and −
same,CPE test (virus replication in the cell wells),"0.2 mM EGCG + PR8 virus, co-incubated 1 minute, third experiment, dilution factor 10^7, wells 1-10",− and +
same,CPE test (virus replication in the cell wells),"0.2 mM EGCG + PR8 virus, co-incubated 1 minute, third experiment, dilution factor 10^8, wells 1-10",−
same,CPE test (virus replication in the cell wells),"0.2 mM EGCG + virus, PR8, 1 minute, first experiment, dilution factor 10^1, wells 1-10",+
same,CPE test (virus replication in the cell wells),"0.2 mM EGCG + virus, PR8, 1 minute, first experiment, dilution factor 10^2, wells 1-10",+
same,CPE test (virus replication in the cell wells),"0.2 mM EGCG + virus, PR8, 1 minute, first experiment, dilution factor 10^3, wells 1-10",+
same,CPE test (virus replication in the cell wells),"0.2 mM EGCG + virus, PR8, 1 minute, first experiment, dilution factor 10^4, wells 1-10",+
same,CPE test (virus replication in the cell wells),"0.2 mM EGCG + virus, PR8, 1 minute, first experiment, dilution factor 10^5, wells 1-10",+
same,CPE test (virus replication in the cell wells),"0.2 mM EGCG + virus, PR8, 1 minute, first experiment, dilution factor 10^6, wells 1-10",− and +
same,CPE test (virus replication in the cell wells),"0.2 mM EGCG + virus, PR8, 1 minute, first experiment, dilution factor 10^7, wells 1-10",− and +
same,CPE test (virus replication in the cell wells),"0.2 mM EGCG + virus, PR8, 1 minute, first experiment, dilution factor 10^8, wells 1-10",−
same,CPE test (virus replication in the cell wells),"0.2 mM EGCG + virus, PR8, 1 minute, second experiment, dilution factor 10^1, wells 1-10",+
same,CPE test (virus replication in the cell wells),"0.2 mM EGCG + virus, PR8, 1 minute, second experiment, dilution factor 10^2, wells 1-10",+
same,CPE test (virus replication in the cell wells),"0.2 mM EGCG + virus, PR8, 1 minute, second experiment, dilution factor 10^3, wells 1-10",+
same,CPE test (virus replication in the cell wells),"0.2 mM EGCG + virus, PR8, 1 minute, second experiment, dilution factor 10^4, wells 1-10",+
same,CPE test (virus replication in the cell wells),"0.2 mM EGCG + virus, PR8, 1 minute, second experiment, dilution factor 10^5, wells 1-10",+
same,CPE test (virus replication in the cell wells),"0.2 mM EGCG + virus, PR8, 1 minute, second experiment, dilution factor 10^6, wells 1-10",+ and −
same,CPE test (virus replication in the cell wells),"0.2 mM EGCG + virus, PR8, 1 minute, second experiment, dilution factor 10^7, wells 1-10",−
same,CPE test (virus replication in the cell wells),"0.2 mM EGCG + virus, PR8, 1 minute, second experiment, dilution factor 10^8, wells 1-10",−
same,average inactivation efficiency against virus,"0.2 mM EGCG, PR8 virus, 1 minute",49.88%
same,inactivation efficiency against the virus,"0.2 mM EGCG, PR8 virus, 5 minutes, single experiment",84.15%
same,average inactivation efficiency against virus,"0.2 mM EGCG, PR8 virus, 5 minutes",70.91%
same,"CPE test, virus replication in cell wells (wells 1-10)","1 mM EGCG + PR8 virus, 5 minutes, third experiment, dilution factor 10^3",+
same,"CPE test, virus replication in cell wells (wells 1-10)","1 mM EGCG + PR8 virus, 5 minutes, third experiment, dilution factor 10^4",+
same,"CPE test, virus replication in cell wells (wells 1-10)","1 mM EGCG + PR8 virus, 5 minutes, third experiment, dilution factor 10^5",+
same,"CPE test, virus replication in cell wells (wells 1-10)","1 mM EGCG + PR8 virus, 5 minutes, third experiment, dilution factor 10^6",− and +
same,"CPE test, virus replication in cell wells (wells 1-10)","1 mM EGCG + PR8 virus, 5 minutes, third experiment, dilution factor 10^7",−
same,"CPE test, virus replication in cell wells (wells 1-10)","1 mM EGCG + PR8 virus, 5 minutes, third experiment, dilution factor 10^8",−
same,CPE test (virus replication in the cell wells),"1 mM EGCG + PR8 virus, co-incubated 1 minute, third experiment, dilution factor 10^3, wells 1-10",+
same,CPE test (virus replication in the cell wells),"1 mM EGCG + PR8 virus, co-incubated 1 minute, third experiment, dilution factor 10^4, wells 1-10",+
same,CPE test (virus replication in the cell wells),"1 mM EGCG + PR8 virus, co-incubated 1 minute, third experiment, dilution factor 10^5, wells 1-10",+ and −
same,CPE test (virus replication in the cell wells),"1 mM EGCG + PR8 virus, co-incubated 1 minute, third experiment, dilution factor 10^6, wells 1-10",− and +
same,CPE test (virus replication in the cell wells),"1 mM EGCG + PR8 virus, co-incubated 1 minute, third experiment, dilution factor 10^7, wells 1-10",−
same,CPE test (virus replication in the cell wells),"1 mM EGCG + PR8 virus, co-incubated 1 minute, third experiment, dilution factor 10^8, wells 1-10",−
same,CPE test (virus replication in the cell wells),"1 mM EGCG + PR8 virus, co-incubated 5 minutes, first experiment, dilution factor 10^3, wells 1-10",+
same,CPE test (virus replication in the cell wells),"1 mM EGCG + PR8 virus, co-incubated 5 minutes, first experiment, dilution factor 10^4, wells 1-10",+
same,CPE test (virus replication in the cell wells),"1 mM EGCG + PR8 virus, co-incubated 5 minutes, first experiment, dilution factor 10^5, wells 1-10",+
